For data set [1], the system named is CXCL-9, CXCL-10. Kind of data set: Release of inflammatory mediators (CXCL-9, CXCL-10) by the enterocyte. The class given is cell-based, human. The note with it: enterocyte model; IL-1β/IFN-γ; extracts subjected to digestion 100 μg/mL, cannabinoids 8 μM. How it is done: FIG. 19: Effect of the extracts 5 and 6 subjected to intestinal digestion (5d, 6d) and of the cannabinoids (CBD, CBG) on the release of inflammatory mediators (CXCL-9, CXCL-10) by the enterocyte. The extracts (100 μg/mL) and the isolated molecules (8 μM) were used in the treatment concomitant with pro-inflammatory stimulation (IL-1β/IFN-γ), arbitrarily placed at 100% . * p<0.05; ** p<0.01; *** p<0.001 (one-way ANOVA test) vs IL-1β/IFN-γ. The data are the mean±SEM of at least three duplicate experiments.
The same was highlighted with the use of pure cannabinoids. In analogy with the colonocyte, the release of IL-15 was found not relevant in the enterocyte model, compared to an increase at the transcriptional level.

The subject of data set [2] is human microbiota of fecal origin. The experiment in a line: Prebiotic effect: butyric acid (SCFA) production after fecal fermentation. The note with it: for butyric acid (SCFA) production, Mean (n = 4): LC-MS analysis, human microbiota of fecal origin. How it is done:
In the last phase of the project, the prebiotic effect of the extracts 5 and 6 towards enteric bacterial strains was evaluated by means of fecal fermentation followed by gene analysis of selected strains.
Following fermentation of the extracts, the level of butyric acid produced by the intestinal flora was measured as an indicator of SCFA production. The reliability of the quantitative analysis was reinforced by two different techniques, namely an ELISA assay and mass spectrometry.
Table 2 below reports the prebiotic effect of the extracts 5 and 6 subjected to intestinal digestion (5d, 6d) and of the cannabinoids (CBD, CBG) in terms of induction of butyric acid (SCFA) production by the human microbiota of fecal origin. The result is expressed in μg/mL (LC-MS analysis).

The test system of data set [3] is CXCL10. The experiment in a line: CXCL10 secretion in undifferentiated CaCo-2 cells (colonocytes) under pro-inflammatory stimulation. The class given is cell-based, human. The conditions noted are these: cannabinoids 8 μM; for CXCL-10 release: colonocyte, IL-1β/IFN-γ, Phase 3, extracts subjected to digestion 100 μg/mL; for CXCL10 secretion: colonocytes, 10 ng/mL IFNγ and 10 ng/mL IL-1β, 24 hours, extracts 100 μg/mL. The method, then: Firstly, the individual cannabinoids CBD and CBG in undifferentiated cells (colonocytes) were analysed by comparing two different pro-inflammatory mixtures, in order to simplify the pro-inflammatory stimulation and the activation pathways involved. The pro-inflammatory mixture 50 ng/mL TNFα, 10 ng/mL LPS, 50 ng/ml IFNγ and 25 ng/ml IL-1ß mimics an inflammatory disease with a bacterial aetiology and was compared with a less complex mixture, consisting of 10 ng/mL IFNγ and 10 ng/mL IL-1β, deprived of the “bacterial” component, therefore more characteristic of an advanced inflammatory disease.
From the analysis of the pro-inflammatory genes most regulated by the application of the pro-inflammatory mixture, chemokines of the CXC family particularly over-expressed in the enterocyte and colonocyte emerged (FIG. 4).
The used concentration of the cannabinoids (8 μM) corresponds to a quantity equal to […] in the extracts at a concentration of 100 μg/mL.
Based on the results obtained, the effects of the different extracts were evaluated using the pro-inflammatory stimulation consisting of 10 ng/mL IFNγ and 10 ng/mL IL-1β.
(§1) Consequently, the effect of the extracts at the protein level, especially in the colonocyte, was evaluated by ELISA assays for inflammatory mediators selected starting from the transcriptional data. All mediators are regulated by NF-κB.

Data set [4] relates to undifferentiated CaCo-2 cells (colonocytes). The experiment in a line: Cytotoxicity / cell viability (MTT) in colonocytes. How it is done: Firstly, the cytotoxicity of the extracts in the undifferentiated CaCo-2 cells (colonocytes) at 100 μg/mL was evaluated.
In the first phase of the work, the combination of IL-1β (10 ng/ml) and IFN-γ (10 ng/mL) was selected as pro-inflammatory stimulation. During the third experimental phase, the cytotoxicity of the extracts in both colonocytes and enterocytes was compared, using this pro-inflammatory cocktail.

Data set [5] concerns CXCL-9. Kind of data set: CXCL-9 release by the colonocyte (ELISA). In kind it is cell-based, human. The conditions noted are these: IL-1β/IFN-γ, extracts subjected to digestion 100 μg/mL, cannabinoids 8 μM. How it is done: (§2) FIGS. 18A, 18B, 18C and 18D: Effect of the extracts 5 and 6 subjected to intestinal digestion (5d, 6d) and of the cannabinoids (CBD, CBG) on the release of inflammatory mediators (CXCL-9, CXCL-10, CCL-20, IL-15) by the colonocyte. The extracts (100 μg/mL) and the isolated molecules (8 μM) were used in the treatment concomitant with pro-inflammatory stimulation (IL-1β/IFN-γ), arbitrarily placed at 100% . * p<0.05; ** p<0.01; *** p<0.001 (one-way ANOVA test) vs IL-1β/IFN-γ. The data are the mean±SEM of at least three duplicate experiments.
as §1
(ELISA stands for enzyme-linked immunosorbent assay.)

In data set [6] the test system is NF-κB. The conditions noted are these: human HaCaT keratinocytes; micromolar concentrations; DOI: 10.1002/ptr.6400; cited from earlier work.
In data set [7] the test system is CCL-20. Kind of data set: CCL-20 release by the colonocyte (ELISA). The class given is cell-based, human. The conditions noted are these: IL-1β/IFN-γ, extracts subjected to digestion 100 μg/mL, cannabinoids 8 μM. How it is done: as §2, §1
The test system of data set [8] is NF-κB transcription factor. The experiment in a line: NF-κB driven transcription, luciferase reporter plasmid in colonocytes. The class given is cell-based, human. The note with it: 10 ng/mL IFNγ and 10 ng/mL IL-1β, 6 hours, extracts 100 μg/mL, cannabinoids 8 μM. From the text: The use of this promoter allows the effect of the extracts/active molecules on transcription driven by this transcription factor to be observed.

“Also recorded” adds a separate entry of the source.

The text below walks through data of US20260158092A1, “COMPOSITION COMPRISING AT LEAST ONE CANNABIS EXTRACT FOR USE IN THE TREATMENT OF AN INFLAMMATORY BOWEL DISEASE” (LINNEA SA, priority 2022, published 2026).

Consider `C=C(C)[C@@H]1CCC(C)=C[C@H]1c1c(O)cc(CCCCC)cc1O` [CBD, cannabidiol], for which the “release of inflammatory mediators” value in data set [1] is listed as “never showed inhibitory effects”. The “butyric acid (SCFA) production, Mean (n = 4)” value (“butyric acid (SCFA) production” below) in data set [2] was determined as 212.20 µg/mL. Besides, in data set [3], the CXCL-10 release entry is “more or less marked inhibitory effect on all the mediators” and the CXCL10 secretion result is “reduced CXCL10 secretion; also recorded: more active than CBG”. The “cell viability / cytotoxicity (MTT)” value in data set [4] (10 ng/mL IFNγ and 10 ng/mL IL-1β, 24 hours, extracts 100 μg/mL, cannabinoids 8 μM) was “slight reduction in cell viability”. In addition, in data set [4] (IL-1β/IFN-γ, 8 μM), the “reduction in viability (MTT)” value is on record as −25%. Further, in data set [5], the CXCL-9 release result was “more or less marked inhibitory effect on all the mediators”. Moreover, in data set [6], the “effect on NF-κB transcription factor” value is given as “inhibitory effect”. Further, the CCL-20 release result in data set [7] is given as “more or less marked inhibitory effect on all the mediators”.

Inulin: the “butyric acid (SCFA) production” value in data set [2] came to 638.87 µg/mL. The “increase in butyric acid levels” value in data set [2] (fecal fermentation) is recorded as 5 times.

`CCCCCc1cc(O)c(C/C=C(\C)CCC=C(C)C)c(O)c1` [CBG, cannabigerol]: the “release of inflammatory mediators” value in data set [1] is “never showed inhibitory effects”. Also, in data set [2], the “butyric acid (SCFA) production” value was 173.54 µg/mL. Moreover, in data set [3], the CXCL-10 release entry is given as “participate in the inhibitory activity” and the CXCL10 secretion result is listed as “reduced CXCL10 secretion”. For the same compound, in data set [8], the NF-κB driven transcription result is “more active than CBD”. In data set [5], the CXCL-9 release result is “participate in the inhibitory activity”.
